Entries after “also recorded” stand apart in the source; their conditions may differ.
Assays:
PC3 cells [1] = assay: Time-lapse microscopy of PC3 cells; format: cell-based, human; conditions: 5% FBS
Method: Time-lapse video microscopy: Cells cultured in 24-well plates were imaged on an Olympus IX81 inverted microscope under environmental control (37° C. and 5% CO2) for 3 days. Imaging started 6 hours after the addition of the compounds and was taken at 1-hour intervals.

PC3 cells [2] = assay: Autophagy markers in PC3 cells (EM AVs, GFP-LC3, LC3-II/LC3-I, MDC, AO); format: cell-based, human

O=c1[nH]c2ccccc2n1C1CCN(Cc2ccc(-c3nc4cc5nc[nH]c5cc4nc3-c3ccccc3)cc2)CC1 [II-4, 1-(1-(4-(7-phenyl-1H-imidazo[4,5-g]quinoxalin-6-yl)benzyl)piperidin-4-yl)-1H-benzo[d]imidazol-2 (3H)-one]
cell morphology, II-4 and CQ (PC3 cells [1]; 10 μM II-4, 10 μM CQ): cell shrinkage and plasma membrane rupture was observed within 48 h | cell division and morphology, agent alone (PC3 cells [1]; 10 μM, 3 d): near-complete inhibition of cell division without overt cell death | AVO accumulation and apoptotic nuclei, II-4 and CQ (multispectral imaging flow cytometry) (PC3 cells [2]): further increase in AVO accumulation in live cells and a concomitant increase in cells with condensed apoptotic nuclei | AVO accumulation, agent alone (multispectral imaging flow cytometry) (PC3 cells [2]): induced AVO accumulation without significant loss of viability | AVs and nuclei by EM, Akti-1/2 and CQ (PC3 cells [2]; 5 μM Akti-1/2, 10 μM CQ, 0.5% FBS): accumulation of larger AVs and the appearance apoptotic nuclei | accumulation of LC3-II (PC3 cells [2]; II-4 alone): significant accumulation of LC3-II within 24 h | accumulation of LC3-II, with CQ cotreatment (PC3 cells [2]; II-4 and 10 μM CQ): further enhanced upon CQ cotreatment | induction of AV accumulation / autophagy, agent alone (PC3 cells [2]; listed as Akti-1/2): induced overt autophagy; also recorded: induced accumulation of AVs

— patent US20140004209A1, “AUTOPHAGY INDUCER AND INHIBITOR COMBINATION THERAPY FOR THE TREATMENT OF NEOPLASMS” (GENENTECH, INC., priority 2010, published 2014)
